30 compounds from US20140128385A1 (NOVARTIS AG, priority 2011, published 2014) can be followed below.

Counter-ions that a name gives are not always drawn.

Broadly, the IC50 is the concentration at which inhibition is half-maximal. Read a high IC50 as lower potency.

This assay addresses T1, BACE-2 (Homo sapiens, UniProt Q9Y5Z0).
T1 construct: Recombinant BACE-2 (extracellular domain, expressed in baculovirus and purified using standard methods); made in house
T1 sequence (Q9Y5Z0 63-473 limits assumed): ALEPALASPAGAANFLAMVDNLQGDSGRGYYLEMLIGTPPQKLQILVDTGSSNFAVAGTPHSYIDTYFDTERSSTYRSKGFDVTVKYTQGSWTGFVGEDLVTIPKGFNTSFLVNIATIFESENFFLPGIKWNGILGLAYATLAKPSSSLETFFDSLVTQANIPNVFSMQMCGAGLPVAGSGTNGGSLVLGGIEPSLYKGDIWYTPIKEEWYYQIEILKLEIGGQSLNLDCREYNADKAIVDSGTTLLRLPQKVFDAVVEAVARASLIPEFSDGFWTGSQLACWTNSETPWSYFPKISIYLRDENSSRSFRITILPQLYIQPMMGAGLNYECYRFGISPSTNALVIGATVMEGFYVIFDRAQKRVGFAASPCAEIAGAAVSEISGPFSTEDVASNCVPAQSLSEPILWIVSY
The experiment in a line: assay for inhibition of BACE-2. Format: biochemical.
For `N#Cc1ccc(C(=O)Nc2ccc(F)c(C3(C(F)(F)F)CCOCC(N)=N3)c2)nc1` (stereo not drawn) [Example 98, 5-Cyano-pyridine-2-carboxylic acid [3-(3-amino-5-trifluoromethyl-2,5,6,7-tetrahydro-[1,4]oxazepin-5-yl)-4-fluoro-phenyl]-amide hydrochloride], the IC50 came to 0.144 µM.

Take `Cc1nc(C(=O)Nc2ccc(F)c([C@]3(C)CO[C@@](C)(C(F)(F)F)C(N)=N3)c2)c(C)o1` [Example 237, 2,5-Dimethyl-oxazole-4-carboxylic acid [3-((3R,6R)-5-amino-3,6-dimethyl-6-trifluoromethyl-3,6-dihydro-2H-[1,4]oxazin-3-yl)-4-fluoro-phenyl]-amide hydrochloride]: the IC50 came out at 0.007 µM.

With `N#Cc1ccc(C(=O)Nc2ccc(F)c(C3(C(F)F)CNCC(N)=N3)c2)nc1` (stereo not drawn) [Example 202, 5-Cyano-pyridine-2-carboxylic acid [3-(6-amino-2-difluoromethyl-2,3,4,5-tetrahydro-pyrazin-2-yl)-4-fluoro-phenyl]-amide], the IC50 is 0.066 µM.

`NC1=N[C@@](c2cc(NC(=O)c3cc4cncnc4[nH]3)ccc2F)(C(F)F)COC1` [Example 157, 7H-Pyrrolo[2,3-d]pyrimidine-6-carboxylic acid [3-((R)-5-amino-3-difluoromethyl-3,6-dihydro-2H-[1,4]oxazin-3-yl)-4-fluoro-phenyl]-amide hydrochloride] displayed an IC50 greater than 10 µM.

Compound `COCCOc1cnc(C(=O)Nc2ccc(F)c([C@]3(C(F)F)COCC(N)=N3)c2)c(C)n1` [Example 178, 5-(2-Methoxy-ethoxy)-3-methyl-pyrazine-2-carboxylic acid [3-((R)-5-amino-3-difluoromethyl-3,6-dihydro-2H-[1,4]oxazin-3-yl)-4-fluoro-phenyl]-amide hydrochloride] had an IC50 of 2.96 µM.

`NC1=N[C@@](c2cc(NC(=O)c3ccc(=O)[nH]c3)ccc2F)(C(F)F)COC1` [Example 162, 6-Oxo-1,6-dihydro-pyridine-3-carboxylic acid [3-((R)-5-amino-3-difluoromethyl-3,6-dihydro-2H-[1,4]oxazin-3-yl)-4-fluoro-phenyl]-amide hydrochloride] gave an IC50 greater than 10 µM.

`C[C@@]1(c2cc(NC(=O)c3ncc(C#N)cn3)ccc2F)CO[C@@](C)(C(F)(F)F)C(N)=N1` [Example 70] displayed an IC50 of 0.004 µM.

Compound `CC1(c2cccc(NC(=O)c3ncccc3F)c2)COCC(N)=N1` (stereo not drawn) [Example 9, 3-Fluoro-pyridine-2-carboxylic acid [3-(5-amino-3-methyl-3,6-dihydro-2H-[1,4]oxazin-3-yl)-phenyl]-amide hydrochloride] had a half-maximal inhibitory concentration (IC50) of 0.663 µM.

For the compound `Cl.[2H]c1nc(C(=O)Nc2ccc(F)c([C@]3(C(F)F)COCC(N)=N3)c2)c(C([2H])([2H])[2H])c([2H])c1Cl` [Example 115], the IC50 was 0.003 µM.

`Cc1cc(C(F)F)cnc1C(=O)Nc1ccc(F)c([C@]2(C)CO[C@@](C)(C(F)(F)F)C(N)=N2)c1` [Example 241, 5-Difluoromethyl-3-methyl-pyridine-2-carboxylic acid [3-((3R,6R)-5-amino-3,6-dimethyl-6-trifluoromethyl-3,6-dihydro-2H-[1,4]oxazin-3-yl)-4-fluoro-phenyl]-amide hydrochloride]: the IC50 stood at 0.008 µM.

On to `COCCN1CC(C)(c2cc(NC(=O)c3ccc(Br)cn3)ccc2F)N=C(N)C1=O` (stereo not drawn) [Example 196, 5-Bromo-pyridine-2-carboxylic acid {3-[6-amino-4-(2-methoxy-ethyl)-2-methyl-5-oxo-2,3,4,5-tetrahydro-pyrazin-2-yl]-4-fluoro-phenyl}-amide hydrochloride], for which the midpoint of inhibition, the IC50, lay at 0.017 µM.

Turning to `COC(=O)N1CC(N)=NC(c2cc(NC(=O)c3ccc(Br)cn3)ccc2F)(C(F)F)C1` (stereo not drawn) [Example 204, 5-Amino-3-{5-[(5-bromo-pyridine-2-carbonyl)-amino]-2-fluoro-phenyl}-3-difluoromethyl-3,6-dihydro-2H-pyrazine-1-carboxylic acid methyl ester], inhibition was half-maximal at 0.01 µM (IC50).

Turning to `COCC(=O)N1CC(N)=NC(c2cc(NC(=O)c3ncc(Br)cc3C)ccc2F)(C(F)F)C1` (stereo not drawn) [Example 208, 5-Bromo-3-methyl-pyridine-2-carboxylic acid {3-[6-amino-2-difluoromethyl-4-(2-methoxy-acetyl)-2,3,4,5-tetrahydro-pyrazin-2-yl]-4-fluoro-phenyl}-amide], the IC50 came to 0.004 µM.

For `COCc1cnc(C(=O)Nc2ccc(F)c([C@]3(C(F)F)COCC(N)=N3)c2)c(Cl)c1` [Example 183, 3-Chloro-5-methoxymethyl-pyridine-2-carboxylic acid [3-((R)-5-amino-3-di-fluoromethyl-3,6-dihydro-2H-[1,4]oxazin-3-yl)-4-fluoro-phenyl]-amide hydrochloride], the midpoint of inhibition, the IC50, lay at 4.94 µM.

Compound `NC1=N[C@@](c2cc(NC(=O)c3cnc(OCC(F)(F)F)cn3)ccc2F)(C(F)F)COC1` [Example 124] displayed an IC50 of 1.63 µM.

Take `NC1=NC(c2cc(NC(=O)c3ccc(Br)cn3)c(F)cc2F)(C(F)F)COC1` (stereo not drawn) [Example 81]: it took 4.29 µM to reach half-maximal inhibition (IC50).

For `Cc1cc(Br)cnc1C(=O)Nc1ccc(F)c([C@]2(C(F)F)COCC(N)=N2)c1` [Example 45], the IC50 came out at 0.01 µM.

As to `Cc1cc(Br)cnc1C(=O)Nc1ccc(F)c(C2(C(F)F)CN(C(=O)OCC(Cl)Cl)CC(N)=N2)c1` (stereo not drawn) [Example 207, 5-Amino-3-{5-[(5-bromo-3-methyl-pyridine-2-carbonyl)-amino]-2-fluoro-phenyl}-3-difluoromethyl-3,6-dihydro-2H-pyrazine-1-carboxylic acid 2,2-dichloro-ethyl ester], the IC50 stood at 0.003 µM.

`NC1=N[C@@](c2cc(NC(=O)c3ncc(Cl)cc3O)ccc2F)(C(F)F)COC1` [Example 169, 5-Chloro-3-hydroxy-pyridine-2-carboxylic acid [3-((R)-5-amino-3-difluoromethyl-3,6-dihydro-2H-[1,4]oxazin-3-yl)-4-fluoro-phenyl]-amide] returned an IC50 of 0.004 µM.

For the compound `COCCOc1cnc(C(=O)Nc2ccc(F)c([C@]3(C)CO[C@@](C)(C(F)(F)F)C(N)=N3)c2)cn1` [Example 74], the IC50 was found to be 0.514 µM.

The compound `CC1(c2cc(NC(=O)c3ccc(C#N)cn3)ccc2F)N=C(N)COCC1(F)F` (stereo not drawn) [Example 156, 5-Cyano-pyridine-2-carboxylic acid [3-(3-amino-6,6-difluoro-5 methyl-2,5,6,7-tetrahydro[1,4]oxazepin-5-yl)-4 fluoro-phenyl]-amide] gave an IC50 of 0.09 µM.

On to `[2H]C([2H])([2H])OCc1cc(C#N)cnc1C(=O)Nc1ccc(F)c([C@]2(C)CO[C@@](C)(C(F)(F)F)C(N)=N2)c1` [Example 245, 5-Cyano-3-trideuteromethoxymethyl-pyridine-2-carboxylic acid [3-((3R,6R)-5-amino-3,6-dimethyl-6-trifluoromethyl-3,6-dihydro-2H-[1,4]oxazin-3-yl)-4-fluoro-phenyl]-amide], for which the midpoint of inhibition, the IC50, lay at 0.013 µM.

Regarding `CN1CC(C)(c2cc(NC(=O)c3ncc(Cl)cc3Cl)ccc2F)N=C(N)C1=O` (stereo not drawn) [Example 192, 3,5-Dichloro-pyridine-2-carboxylic acid [3-(6-amino-2,4-dimethyl-5-oxo-2,3,4,5-tetrahydro-pyrazin-2-yl)-4-fluoro-phenyl]-amide hydrochloride], 0.013 µM corresponded to half-maximal inhibition (IC50).

As to `[2H]C([2H])([2H])OCc1cc(F)cnc1C(=O)Nc1ccc(F)c([C@]2(C(F)F)COCC(N)=N2)c1` [Example 223], half-maximal inhibition (IC50) was put at 0.059 µM.

As for `Cc1c(C(=O)Nc2ccc(F)c([C@]3(C(F)F)COCC(N)=N3)c2)nnn1C` [Example 173, 1,5-Dimethyl-1H-[1,2,3]triazole-4-carboxylic acid [3-((R)-5-amino-3-difluoromethyl-3,6-dihydro-2H-[1,4]oxazin-3-yl)-4-fluoro-phenyl]-amide hydrochloride], the IC50 is greater than 10 µM.

As for `NC1=NC(CF)(c2cc(NC(=O)c3ccc(Br)cn3)cnc2Cl)COC1` (stereo not drawn) [Example 274, 5-Bromo-pyridine-2-carboxylic acid [5-(5-amino-3-fluoromethyl-3,6-dihydro-2H-[1,4]oxazin-3-yl)-6-chloro-pyridin-3-yl]-amide hydrochloride], the IC50 came out at 0.132 µM.

Turning to `COCCOc1cnc(C(=O)Nc2ccc(F)c([C@]3(C(F)F)COCC(N)=N3)c2)c(N)n1` [Example 158, 3-Amino-5-(2-methoxy-ethoxy)-pyrazine-2-carboxylic acid [3-((R)-5-amino-3-difluoromethyl-3,6-dihydro-2H-[1,4]oxazin-3-yl)-4-fluoro-phenyl]-amide], the IC50 is 3.38 µM.

With `COc1ccc(C(=O)Nc2cccc([C@]3(C)CO[C@@](C)(C(F)(F)F)C(N)=N3)c2)nc1` [Example 67], the IC50 was found to be 0.027 µM.

`Cc1cc(F)cnc1C(=O)Nc1ccc(F)c([C@]2(C)CO[C@@](C)(C(F)(F)F)C(N)=N2)c1` [Example 249, 5-Fluoro-3-methyl-pyridine-2-carboxylic acid [3-((3R,6R)-5-amino-3,6-dimethyl-6-trifluoro-methyl-3,6-dihydro-2H-[1,4]oxazin-3-yl)-4-fluoro-phenyl]-amide] came in with an IC50 of 0.003 µM.

For the compound `C[C@@H]1OC[C@](c2cc(NC(=O)c3ccc(C#N)cn3)ccc2F)(C(F)F)N=C1N` (relative stereo) [Example 76, 5-Cyano-pyridine-2-carboxylic acid [3-((3R*,6S*)-5-amino-3-difluoromethyl-6-methyl-3,6-dihydro-2H-[1,4]oxazin-3-yl)-4-fluoro-phenyl]-amide hydrochloride], the IC50 worked out at 0.175 µM.
